# Where two headings read alike, the source gives them in different places.
# Columns and labels:
# [1] = Musculoskeletal adverse events, study A4141001; format: in vivo, human
# [2] = tested on: STAM model of non-alcoholic steatohepatitis (NASH)
# Method: Telmisartan (Micardis®) was purchased from Boehringer Ingelheim GmbH (Germany) and dissolved in pure water.
# Telmisartan was administered at a dose of 10 mg/kg once daily.
# Eight-hour fasting blood glucose was measured in whole blood using Life Check (EIDIA Co. Ltd., Japan). For plasma biochemistry, eight-hour fasting blood was collected in polypropylene tubes with anticoagulant (Novo-Heparin, Mochida Pharmaceutical, Japan) and centrifuged at 1,000×g for 15 minutes at 4° C. The supernatant was collected and stored at −80° C. until use. Plasma insulin levels were quantified by Ultra Sensitive Mouse Insulin ELISA kit (Morinaga Institute of Biological Science, Inc., Japan).
# On the day of termination, non-fasting blood glucose was measured in whole blood using Life Check. For plasma biochemistry, non-fasting blood was collected in polypropylene tubes with anticoagulant (Novo-Heparin) and centrifuged at 1,000×g for 15 minutes at 4° C. The supernatant was collected and stored at −80° C. until use. Plasma ALT, AST, ALP, GGT, BUN, creatinine and total bilirubin levels were measured by FUJI DRI-CHEM 7000 (Fujifilm Corporation, Japan). Plasma ketone body levels were quantified by EnzyChrom™ Ketone Body Assay Kit (BioAssay Systems, USA).
# Liver samples were homogenized in chloroform-methanol (2:1, v/v) and incubated overnight at room temperature. After washing with chloroform-methanol-water (8:4:3, v/v/v), the extracts were evaporated to dryness, and dissolved in isopropanol. Liver triglyceride content was measured by Triglyceride E-test (Wako Pure Chemical Industries). […]
# Statistical analyses were performed using Bonferroni Multiple Comparison Test on GraphPad Prism 6 (GraphPad Software Inc., USA). […] Results were expressed as mean±SD.
# The viability, clinical signs and behavior were monitored daily. Body weight was recorded before the treatment. […] The animals were sacrificed by exsanguinations through direct cardiac puncture under isoflurane anesthesia (Pfizer Inc.) at 9 weeks of age.
# [3] = male, Wistar, rat, in vivo, po, 10 mg/kg
# Method: Dose solution was prepared by dissolving labeled drug in 0.45 mL ethanol and 4.05 mL 0.5% methylcellulose in water. […] Final specific activity of dose solution was 10.37 μCi/mg.
# Male Wistar rats with an average weight of 202 g were fasted overnight prior to dosing. […] Carcasses were rapidly frozen in dry ice/hexane mixture and prepared for whole body sectioning and autoradiography. Sections of 50 μm thickness were air dried at −20° C. and applied to BioMax scientific imaging film (Eastman Kodak, Rochester, N.Y.) or phosphor imaging plates for autoradiographic exposure (Molecular Dynamics, Sunnyvale, Calif.). Carbon-14 standards (American Radiolabeled Chemicals, St. Louis) were included on representative films and plates for calibration of the analyzer. Processed films were digitized with the analyzer scanner (Loats INQUIRY image analysis system, Loats Associates, Westminster, Md.), and radioactivity remaining in tissues was determined by quantitative video densitometric analysis of digital images. Imaging plates were scanned after 1-week exposure. Resulting electronic images were used for preliminary evaluation of distribution.
# [4] = A4141001, patient type IIa + IIb
compound,measurement,setting,value
"CC(C)c1c(C(=O)Nc2ccccc2)c(-c2ccccc2)c(-c2ccc(F)cc2)n1CC[C@@H](O)C[C@@H](O)CC(=O)O [Atorvastatin, reference compound]",% = the percent of patients experiencing a musculoskeletal adverse event,"[1]; A4141001, patient type IIa",9.1%
same,No = the number of muscle skeletal adverse events,"[1]; A4141001, patient type IIa",2
same,% = the percent of patients experiencing a musculoskeletal adverse event,[1]; [4],13.5%
same,No = the number of muscle skeletal adverse events,[1]; [4],7
same,% = the percent of patients experiencing a musculoskeletal adverse event,"[1]; A4141001, patient type IIb",16.7%
same,No = the number of muscle skeletal adverse events,"[1]; A4141001, patient type IIb",5
"CCCc1nc2c(C)cc(-c3nc4ccccc4n3C)cc2n1Cc1ccc(-c2ccccc2C(=O)O)cc1 [Telmisartan, reference compound]","NAFLD Activity score, NAS (mean ± SD)","[2]; STAM NASH mice, 10 mg/kg PO QD 6-9 wks, 10 mg/kg",significant reduction
same,mortality during the treatment period,"[2]; STAM NASH mice, 10 mg/kg PO QD, before reaching Day 21",one mouse was found dead
same,Fasting blood glucose (mean ± SD),"[2]; STAM NASH mice, 10 mg/kg PO QD, Day 18, 8 hours of fasting, listed as telemisartan, 10 mg/kg",significant increase
same,Liver triglyceride (mean ± SD),"[2]; STAM NASH mice, 10 mg/kg PO QD, Day 21, listed as telemisartan, 10 mg/kg",significant decrease
same,Non-fasting blood glucose (mean ± SD),"[2]; STAM NASH mice, 10 mg/kg PO QD, termination (Day 21), listed as telemisartan, 10 mg/kg",significant increase
same,fibrosis area compared with the Vehicle in NASH group,"[2]; STAM NASH mice, all treatment groups (gemcabene 30, 100, 300 mg/kg; telmisartan 10 mg/kg)",significantly decreased
same,Plasma ALP (mean ± SD),"[2]; mouse, in vivo, po, 10 mg/kg",significant increases
same,Plasma BUN (mean ± SD),"[2]; mouse, in vivo, po, 10 mg/kg",significant increase
same,Plasma GGT (mean ± SD),"[2]; mouse, in vivo, po, 10 mg/kg",1 ± 0 U/L
same,Plasma creatinine (mean ± SD),"[2]; mouse, in vivo, po, 10 mg/kg",0.1 ± 0.0 mg/dL
CC(C)(CCCCOCCCCC(C)(C)C(=O)O)C(=O)O [[14C] gemcabene],radioequivalents remaining in Adrenal,[3]; 1 h,6.05 μg equivalents/g
same,radioequivalents remaining in Blood,[3]; 1 h,15.46 μg equivalents/g
same,radioequivalents remaining in Brain,[3]; 1 h,0.41 μg equivalents/g
same,radioequivalents remaining in Kidney,[3]; 1 h,18.75 μg equivalents/g
same,radioequivalents remaining in Liver,[3]; 1 h,35.78 μg equivalents/g
same,radioequivalents remaining in Lung,[3]; 1 h,11.69 μg equivalents/g
same,radioequivalents remaining in Muscle,[3]; 1 h,1.35 μg equivalents/g
same,radioequivalents remaining in Adrenal,[3]; 4 h,4.76 μg equivalents/g
same,radioequivalents remaining in Blood,[3]; 4 h,13.65 μg equivalents/g
same,radioequivalents remaining in Brain,[3]; 4 h,0.47 μg equivalents/g
same,radioequivalents remaining in Kidney,[3]; 4 h,17.84 μg equivalents/g
same,radioequivalents remaining in Liver,[3]; 4 h,37.08 μg equivalents/g
same,radioequivalents remaining in Lung,[3]; 4 h,10.15 μg equivalents/g
same,radioequivalents remaining in Muscle,[3]; 4 h,1.40 μg equivalents/g
same,radioequivalents remaining in Adrenal,[3]; 8 h,4.29 μg equivalents/g
same,radioequivalents remaining in Blood,[3]; 8 h,9.75 μg equivalents/g
same,radioequivalents remaining in Brain,[3]; 8 h,0.43 μg equivalents/g
same,radioequivalents remaining in Kidney,[3]; 8 h,16.44 μg equivalents/g
same,radioequivalents remaining in Liver,[3]; 8 h,27.42 μg equivalents/g
same,radioequivalents remaining in Lung,[3]; 8 h,7.59 μg equivalents/g
same,radioequivalents remaining in Muscle,[3]; 8 h,0.99 μg equivalents/g
same,radioequivalents remaining in Adrenal,[3]; 24 h,1.42 μg equivalents/g
same,radioequivalents remaining in Blood,[3]; 24 h,4.69 μg equivalents/g
same,radioequivalents remaining in Brain,[3]; 24 h,0.24 μg equivalents/g
same,radioequivalents remaining in Kidney,[3]; 24 h,17.45 μg equivalents/g
same,radioequivalents remaining in Liver,[3]; 24 h,24.35 μg equivalents/g
same,radioequivalents remaining in Lung,[3]; 24 h,3.58 μg equivalents/g
same,radioequivalents remaining in Muscle,[3]; 24 h,0.45 μg equivalents/g
same,radioequivalents remaining in Adrenal,[3]; 48 h,0.22 μg equivalents/g
same,radioequivalents remaining in Blood,[3]; 48 h,0.44 μg equivalents/g
same,radioequivalents remaining in Kidney,[3]; 48 h,7.23 μg equivalents/g
same,radioequivalents remaining in Liver,[3]; 48 h,3.64 μg equivalents/g
same,radioequivalents remaining in Lung,[3]; 48 h,0.36 μg equivalents/g
same,radioequivalents remaining in Kidney,[3]; 96 h,0.83 μg equivalents/g
same,radioequivalents remaining in Liver,[3]; 96 h,0.24 μg equivalents/g

# Source: patent US9849104B2 (Gemphire Therapuetics Inc., priority 2015, dated 2017)
